Measurements reported in patent publication US20260256881A1, “COMPOSITIONS COMPRISING PEDF-DERIVED SHORT PEPTIDES FOR THE TREATMENT OF NEUROTROPHIC KERATITIS DISEASES” (BRIM Biotechnology, Inc., priority 2022, published 2026).

What was measured:
Format in all cases: in vivo
[1] = test system: NK model in Chinchilla rabbits (ophthalmic branch (V1) of trigeminal nerve injured with sodium hydroxide); experiment: Schirmer test for tear production, NK rabbit model; conditions: for Schirmer Test: X ± SEM, n = 8
Protocol: (§1) The NK model is established in Chinchilla rabbits by using a chemical method to destroy the ophthalmic branch (V1) of trigeminal nerve to induce NK. Briefly, animals were anesthetized. […] The trigeminal nerve was carefully separated from surrounding fasciae, and the ophthalmic nerve (V1) of trigeminal nerve was isolated and injured with sodium hydroxide solution. The V1 injury was performed for unilateral eye in each animal for 5 days prior to treatment.
(§2) A total of 16 animals were assigned randomly into two groups based on corneal ulcer areas at Day 1 prior to the treatments, and the animals received either BRM424 ophthalmic solution (OS containing 0.03% BRM424; TA-1 group) or Vehicle (TA-2 group) in the surgical eye three times daily (TID, eye drops) for 28 days. During the study period, the corneal ulcer areas, corneal fluorescein staining, corneal sensitivity, Schirmer test, and Tear film break-up time (TFBUT) at baseline (Day 0), Day 4, Day 8, Day 15, Day 22, and Day 29 were measured.
However, the tear volumes of the TA-1 group at Day 29 were about 2-fold higher than that at Day 0.

[2] = test system: NK model in Chinchilla rabbits (ophthalmic branch (V1) of trigeminal nerve injured with sodium hydroxide); experiment: Tear film break-up time (TFBUT), NK rabbit model; conditions: for TFBUT: X ± SEM, n = 8
Protocol: as §1, §2

[3] = test system: NK model in Chinchilla rabbits (ophthalmic branch (V1) of trigeminal nerve injured with sodium hydroxide); experiment: Central corneal sensitivity with Von Frey filaments, NK rabbit model; conditions: for Corneal Sensitivity, Contact force (Nylon size) / Corneal Sensitivity, Contact force: X ± SEM, n = 8
Protocol: as §1, §2
Central corneal sensitivity was monitored using Von Frey filaments. Various forces of calibrated Von Frey filaments (0.008-300 g) were applied to the center of the cornea surface of immobilized animal. The mechanical threshold response was determined by assessing treated-eye blinking response evoked by the same calibrated Von Frey filaments twice out of three times. FIG. 4A and FIG. 4B show results for corneal sensitivity tests. Prior to the dose administration (Day 0), there was no corneal reflex in all animals, even when using the coarsest nylon filament (Force 0.008-300 g).

[4] = test system: NK model in Chinchilla rabbits (ophthalmic branch (V1) of trigeminal nerve injured with sodium hydroxide); experiment: Corneal ulceration area, slit-lamp with cobalt blue light, NK rabbit model; conditions: for Corneal Ulceration Area: X ± SEM, n = 8
Protocol: as §1, §2
Corneal ulceration areas were measured from images taken during slit-lamp examination with cobalt blue light. […] At Day 0, the corneal ulceration areas were 25.98±1.88 mm^2 for the TA-1 group and 27.65±2.66 mm^2 for the TA-2 group, and these areas were reduced to 7.80±1.45 mm^2 and 13.30±2.36 mm^2 by Day 8 for the TA-1 group and TA-2 group, respectively.

[5] = test system: NK model in Chinchilla rabbits (ophthalmic branch (V1) of trigeminal nerve injured with sodium hydroxide); experiment: Corneal fluorescein staining (FL score), NK rabbit model; design: Fluorescein Staining Score: scale not given here; conditions: for Fluorescein Staining Score: X ± SEM, n = 8
Protocol: as §1, §2
Cornea damage may be assessed using corneal fluorescein staining. […] The mean value of corneal fluorescein sodium staining scores at Day 0 was 3.62±0.18 for both the TA-1 and TA-2 groups and fell below 3 (TA-1=1.38±0.18, TA-2=2.36±0.42) by Day 8, indicating a quick onset of action. […] The fluorescein staining score of the TA-1 group reached 1 by Day 29.

[6] = Day 0 (baseline, prior to treatment)
[7] = Day 4, 0.03% BRM424 ophthalmic solution TID
[8] = Day 8, 0.03% BRM424 ophthalmic solution TID
[9] = Day 15, 0.03% BRM424 ophthalmic solution TID
[10] = Day 22, 0.03% BRM424 ophthalmic solution TID
[11] = Day 29, 0.03% BRM424 ophthalmic solution TID
[12] = after 29 days of topical dose administrations
[13] = Day 0 (baseline, prior to treatment), listed as TA-1

## SLGAEQRTESIIHRALYYDLISSPDIHGT (ophthalmic solution 0.03%; listed as Homo sapiens) [BRM424, PEDF-derived short peptide (PDSP), residues 93-121 of PEDF]
[1]; [6]
  Schirmer Test: 5.63 ± 0.71 mm
[1]; [7]
  Schirmer Test: 6.00 ± 0.93 mm
[1]; [8]
  Schirmer Test: 5.50 ± 1.02 mm
[1]; [9]
  Schirmer Test: 6.38 ± 0.86 mm
[1]; [10]
  Schirmer Test: 6.50 ± 1.24 mm
[1]; [11]
  Schirmer Test: 10.75 ± 1.59 mm
[1]; Day 29 vs Day 0, same group
  Tear volumes at Day 29 relative to Day 0: about 2 fold
[1]; [12]
  Tear volumes, difference between TA-1 and TA-2 (vehicle) groups: no significant difference
[2]; [6]
  TFBUT: 5.50 ± 0.33 s
[2]; [7]
  TFBUT: 4.88 ± 0.48 s
[2]; [8]
  TFBUT: 6.75 ± 0.45 s
[2]; [9]
  TFBUT: 5.13 ± 0.55 s
[2]; [10]
  TFBUT: 4.38 ± 0.32 s
[2]; [11]
  TFBUT: 5.38 ± 0.32 s
[2]; [12]
  TFBUT, difference between TA-1 and TA-2 (vehicle) groups: no significant difference
[3]; Day 0 (baseline, prior to treatment), Von Frey filament that triggered corneal reflex
  Corneal Sensitivity, Contact force (Nylon size): 6.65 ± 0.00
[3]; Day 0 (baseline, prior to treatment), force that triggered corneal reflex
  Corneal Sensitivity, Contact force: 300.00 ± 0.00 g
[3]; [7]
  Corneal Sensitivity, Contact force: 300.00 ± 0.00 g
  Corneal Sensitivity, Contact force (Nylon size): 6.65 ± 0.00
[3]; [8]
  Corneal Sensitivity, Contact force: 300.00 ± 0.00 g
  Corneal Sensitivity, Contact force (Nylon size): 6.65 ± 0.00
[3]; [9]
  Corneal Sensitivity, Contact force: 235.75 ± 42.18 g
  Corneal Sensitivity, Contact force (Nylon size): 6.41 ± 0.16
[3]; [10]
  Corneal Sensitivity, Contact force: 300.00 ± 0.00 g
  Corneal Sensitivity, Contact force (Nylon size): 6.65 ± 0.00
[3]; [11]
  Corneal Sensitivity, Contact force: 189.75 ± 53.80 g
  Corneal Sensitivity, Contact force (Nylon size): 5.93 ± 0.35
[3]; after 29 days of treatments
  Corneal sensation recovery compared with vehicle (TA-2) group: recovered faster with better improvement than the TA-2 group
[4]; [6]
  Corneal Ulceration Area: 25.98 ± 1.88 mm^2
[4]; [13]
  Corneal Ulceration Area: 25.98±1.88 mm^2
[4]; Day 4, 0.03% BRM424 ophthalmic solution, eye drops TID, surgical eye
  Corneal Ulceration Area: 13.63 ± 2.51 mm^2
[4]; Day 8, Day 15 and Day 29, p<0.05
  Corneal ulceration area reduction compared with vehicle (TA-2) group: more than that of TA-2 group
[4]; Day 8, 0.03% BRM424 ophthalmic solution, eye drops TID, surgical eye
  Corneal Ulceration Area: 7.80 ± 1.45 mm^2
[4]; Day 8, 0.03% BRM424 ophthalmic solution, eye drops TID, surgical eye, listed as TA-1
  Corneal Ulceration Area: 7.80±1.45 mm^2
[4]; Day 15, 0.03% BRM424 ophthalmic solution, eye drops TID, surgical eye
  Corneal Ulceration Area: 9.93 ± 2.46 mm^2
[4]; Day 22, 0.03% BRM424 ophthalmic solution, eye drops TID, surgical eye
  Corneal Ulceration Area: 7.29 ± 2.11 mm^2
[4]; Day 29, 0.03% BRM424 ophthalmic solution, eye drops TID, surgical eye
  Corneal Ulceration Area: 4.81 ± 1.44 mm^2
[5]; [6]
  Fluorescein Staining Score: 3.62 ± 0.18
[5]; [13]
  Fluorescein Staining Score: 3.62±0.18
[5]; Day 4, 0.03% BRM424 ophthalmic solution, eye drops TID
  Fluorescein Staining Score: 2.00 ± 0.38
[5]; Day 8, 0.03% BRM424 ophthalmic solution, eye drops TID
  Fluorescein Staining Score: 1.38 ± 0.18
[5]; Day 8, 0.03% BRM424 ophthalmic solution, eye drops TID, listed as TA-1
  Fluorescein Staining Score: 1.38±0.18
[5]; Day 8 and Day 15, P<0.05
  Fluorescein staining score, difference between TA-1 and TA-2 (vehicle) groups: Significant difference
[5]; Day 15, 0.03% BRM424 ophthalmic solution, eye drops TID
  Fluorescein Staining Score: 1.63 ± 0.36
[5]; Day 22, 0.03% BRM424 ophthalmic solution, eye drops TID
  Fluorescein Staining Score: 1.25 ± 0.16
[5]; Day 29, 0.03% BRM424 ophthalmic solution, eye drops TID
  Fluorescein Staining Score: 1.00 ± 0.19
[5]; Day 29, 0.03% BRM424 ophthalmic solution, eye drops TID, listed as TA-1
  Fluorescein Staining Score: 1
